Experimental data taken from ChEMBL document CHEMBL5325413, “Optimization of BAX trigger site activator BTSA1 with improved antitumor potency and in vitro ADMET properties” (Eur J Med Chem, 2023).
Activity calls are given as the source filed them. The calls are words filed in the database; no cut-off is given here.

Columns and labels:
A549 [1] = experiment: Induction of apoptosis in human A549 cells assessed as total apoptotic cells at 10 uM incubated for 48 hrs by Annexin V-FITC/PI staining based flow cytometry analysis (reference value: 2.86%); type: functional
A549 [2] = experiment: Induction of apoptosis in human A549 cells assessed as live cells at 40 uM incubated for 48 hrs by Annexin V-FITC/PI staining based flow cytometry analysis (reference value: 95.9 %); type: functional
A549 [3] = experiment: Induction of apoptosis in human A549 cells assessed as total apoptotic cells at 40 uM incubated for 48 hrs by Annexin V-FITC/PI staining based flow cytometry analysis (reference value: 4.26%); type: functional
[4] = Metabolic stability in mouse liver microsomes assessed as parent compound remaining at 100 uM incubated for 60 mins in presence of NADPH by LC-MS/MS analysis
HCT-116 = experiment: Antiproliferative activity against human HCT-116 cells assessed as cell growth inhibition incubated for 72 hrs by MTT assay; type: functional
[5] = Stability in rat plasma assessed as compound remaining measured after 10 mins; type: ADME, cell-free; details: read-out: Stability
[6] = Stability in rat plasma assessed as compound remaining measured immediately; type: ADME, cell-free; details: read-out: Stability
A549 [7] = experiment: Induction of apoptosis in human A549 cells assessed as late apoptotic cells at 40 uM incubated for 48 hrs by Annexin V-FITC/PI staining based flow cytometry analysis (reference value: 2.52%); type: functional
[8] = Metabolic stability in mouse liver microsomes assessed as parent compound remaining at 100 uM incubated for 60 mins in absence of NADPH by LC-MS/MS analysis
A549 [9] = experiment: Antiproliferative activity against human A549 cells assessed as cell growth inhibition incubated for 72 hrs by MTT assay; type: functional
in vitro [10] = details: human, liver microsomes
[11] = Stability in rat plasma assessed as compound remaining measured after 60 mins; type: ADME, cell-free; details: read-out: Stability
A549 [12] = experiment: Induction of apoptosis in human A549 cells assessed as late apoptotic cells at 20 uM incubated for 48 hrs by Annexin V-FITC/PI staining based flow cytometry analysis (reference value: 2.52%); type: functional
A549 [13] = experiment: Induction of cell cycle arrest in human A549 cells assessed as accumulation of cells at G2/M phase at 10 uM incubated for 48 hrs by RNase/PI staining based flow cytometry analysis (reference value: 18.97%); type: functional
A549 [14] = experiment: Induction of apoptosis in human A549 cells assessed as live cells at 10 uM incubated for 48 hrs by Annexin V-FITC/PI staining based flow cytometry analysis (reference value: 96.4%); type: functional
A549 [15] = experiment: Inhibition of colony formation in human A549 cells at 20 uM incubated for 2 weeks by crystal violet staining based analysis; type: functional, cell-based
THP-1 = experiment: Antiproliferative activity against human THP-1 cells expressing BAX assessed as cell growth inhibition incubated for 72 hrs by trypan blue cell counting analysis; type: functional
A549 [16] = experiment: Induction of apoptosis in human A549 cells assessed as early apoptotic cells at 20 uM incubated for 48 hrs by Annexin V-FITC/PI staining based flow cytometry analysis (reference value: 1.09 %); type: functional
MDA-MB-231 = experiment: Antiproliferative activity against human MDA-MB-231 cells expressing BAX assessed as cell growth inhibition incubated for 72 hrs by MTT assay; type: functional
PC-3 = experiment: Antiproliferative activity against human PC-3 cells assessed as cell growth inhibition incubated for 72 hrs by MTT assay; type: functional
[17] = Stability in rat plasma assessed as compound remaining measured after 120 mins; type: ADME, cell-free; details: read-out: Stability
A549 [18] = experiment: Induction of apoptosis in human A549 cells assessed as live cells at 20 uM incubated for 48 hrs by Annexin V-FITC/PI staining based flow cytometry analysis (reference value: 95.9 %); type: functional
[19] = mouse, microsomes, 1 h, 100 µM
A549 [20] = experiment: Induction of apoptosis in human A549 cells assessed as nuclear fragmentation at 20 to 80 uM incubated for 48 hrs by Hoechst 33342 staining based fluorescence microscopic analysis; type: functional, cell-based; details: dose 20-80 µM
A549 [21] = experiment: Induction of cell cycle arrest in human A549 cells assessed as accumulation of cells at S phase at 10 uM incubated for 48 hrs by RNase/PI staining based flow cytometry analysis (reference value: 26.01%); type: functional
in vitro [22] = details: mouse, liver microsomes
A549 [23] = experiment: Induction of apoptosis in human A549 cells assessed as early apoptotic cells at 10 uM incubated for 48 hrs by Annexin V-FITC/PI staining based flow cytometry analysis (reference value: 0.708%); type: functional
A549 [24] = experiment: Induction of apoptosis in human A549 cells assessed as late apoptotic cells at 10 uM incubated for 48 hrs by Annexin V-FITC/PI staining based flow cytometry analysis (reference value: 2.15%); type: functional
[25] = Stability in rat plasma assessed as half life; type: ADME, cell-free
A549 [26] = experiment: Induction of apoptosis in human A549 cells assessed as dead cells at 20 uM incubated for 48 hrs by Annexin V-FITC/PI staining based flow cytometry analysis (reference value: 0.535%); type: functional
[27] = human, microsomes, 1 h, 100 µM
A549 [28] = experiment: Antiproliferative activity against human A549 cells assessed as reduction in cell viability at 5 to 25 uM by MTT assay; type: functional, cell-based; details: dose 5-25 µM, time 24-72 hrs, TDE = time-dependent effect
A549 [29] = experiment: Induction of cell cycle arrest in human A549 cells assessed as accumulation of cells at G0/G1 phase at 10 uM incubated for 48 hrs by RNase/PI staining based flow cytometry analysis (reference value: 54.82%); type: functional
K562 = experiment: Antiproliferative activity against human K562 cells expressing BAX assessed as cell growth inhibition incubated for 72 hrs by trypan blue cell counting analysis; type: functional
[30] = mouse, 1 h, 100 µM
A549 [31] = experiment: Induction of apoptosis in human A549 cells assessed as total apoptotic cells at 20 uM incubated for 48 hrs by Annexin V-FITC/PI staining based flow cytometry analysis (reference value: 4.26%); type: functional
MV4-11 = experiment: Antiproliferative activity against human MV4-11 cells expressing BAX assessed as cell growth inhibition incubated for 72 hrs by trypan blue cell counting analysis; type: functional
A549 [32] = experiment: Induction of apoptosis in human A549 cells assessed as formation of apoptotic bodies at 20 to 80 uM incubated for 48 hrs by Hoechst 33342 staining based fluorescence microscopic analysis; type: functional, cell-based; details: dose 20-80 µM
A549 [33] = experiment: Induction of apoptosis in human A549 cells assessed as dead cells at 40 uM incubated for 48 hrs by Annexin V-FITC/PI staining based flow cytometry analysis (reference value: 0.535%); type: functional
A549 [34] = experiment: Induction of apoptosis in human A549 cells assessed as cell rounding at 20 to 80 uM incubated for 48 hrs by Hoechst 33342 staining based fluorescence microscopic analysis; type: functional; details: dose 20-80 µM
A549 [35] = experiment: Induction of apoptosis in human A549 cells assessed as dead cells at 10 uM incubated for 48 hrs by Annexin V-FITC/PI staining based flow cytometry analysis (reference value: 0.739%); type: functional
[36] = Stability in rat plasma assessed as compound remaining measured after 30 mins; type: ADME, cell-free; details: read-out: Stability
[37] = Metabolic stability in human liver microsomes assessed as parent compound remaining at 100 uM incubated for 60 mins in presence of NADPH by LC-MS/MS analysis
[38] = Metabolic stability in human liver microsomes assessed as parent compound remaining at 100 uM incubated for 60 mins in absence of NADPH by LC-MS/MS analysis
NCI-H1581 = experiment: Antiproliferative activity against human NCI-H1581 cells expressing BAX assessed as cell growth inhibition incubated for 72 hrs by MTT assay; type: functional

**Q.** With `O=C1/C(=N\Nc2nccs2)C(c2ccccc2)=NN1c1nc(-c2ccccc2)cs1` as the compound, how does the Activity (A549 [1]) read?
**A.** 3.81%

**Q.** And the Activity (A549 [2])?
**A.** 82.2%

**Q.** And the Activity (A549 [3])?
**A.** 14.92%

**Q.** And the remaining at 1 h, 100 µM [4]?
**A.** 59.4%

**Q.** And the GI50 (HCT-116)?
**A.** 12.5 µM

**Q.** What about the remaining at 10 min [5] of the same compound?
**A.** 101%

**Q.** What about the remaining at 0 min [6] of the same compound?
**A.** 100%

**Q.** And the Activity (A549 [7])?
**A.** 10.2%

**Q.** And the remaining at 1 h, 100 µM [8]?
**A.** 84.8%

**Q.** What about the GI50 (A549 [9]) of the same compound?
**A.** 14.5 µM

**Q.** And the half-life at 1 h, 100 µM (in vitro [10])?
**A.** 1.08 h

**Q.** What about the remaining at 1 h [11] of the same compound?
**A.** 100%

**Q.** And the Activity (A549 [12])?
**A.** 2.7%

**Q.** And the Activity (A549 [13])?
**A.** 10.12%

**Q.** And the Activity (A549 [14])?
**A.** 95.5%

**Q.** And the inhibition (A549 [15])?
**A.** Active

**Q.** And the GI50 (THP-1)?
**A.** > 10 µM

**Q.** And the Activity (A549 [16])?
**A.** 3.21%

**Q.** What about the GI50 (MDA-MB-231) of the same compound?
**A.** > 20 µM

**Q.** And the GI50 (PC-3)?
**A.** 14.3 µM

**Q.** What about the remaining at 2 h [17] of the same compound?
**A.** 98.6%

**Q.** And the Activity (A549 [18])?
**A.** 93.6%

**Q.** And the CLint [19]?
**A.** 15.8 µL/min/mg

**Q.** What about the Activity (A549 [20]) of the same compound?
**A.** Active

**Q.** And the Activity (A549 [21])?
**A.** 24.77%

**Q.** What about the half-life at 1 h, 100 µM (in vitro [22]) of the same compound?
**A.** 1.46 h

**Q.** What about the Activity (A549 [23]) of the same compound?
**A.** 0.844%

**Q.** What about the Activity (A549 [24]) of the same compound?
**A.** 2.97%

**Q.** What about the half-life [25] of the same compound?
**A.** > 4.82 h

**Q.** What about the Activity (A549 [26]) of the same compound?
**A.** 0.486%

**Q.** And the CLint [27]?
**A.** 21.3 µL/min/mg

**Q.** What about the Activity (A549 [28]) of the same compound?
**A.** Tde

**Q.** And the Activity (A549 [29])?
**A.** 57.42%

**Q.** What about the GI50 (K562) of the same compound?
**A.** > 4 µM

**Q.** And the CLH [30]?
**A.** 3.76 mL/h/kg

**Q.** And the Activity (A549 [31])?
**A.** 5.91%

**Q.** What about the GI50 (MV4-11) of the same compound?
**A.** 6.29 µM

**Q.** And the Activity (A549 [32])?
**A.** Active

**Q.** And the Activity (A549 [33])?
**A.** 2.82%

**Q.** What about the Activity (A549 [34]) of the same compound?
**A.** Active

**Q.** What about the Activity (A549 [35]) of the same compound?
**A.** 0.651%

**Q.** What about the remaining at 0.5 h [36] of the same compound?
**A.** 98.2%

**Q.** What about the remaining at 1 h, 100 µM [37] of the same compound?
**A.** 55.6%

**Q.** What about the remaining at 1 h, 100 µM [38] of the same compound?
**A.** 94.2%

**Q.** And the GI50 (NCI-H1581)?
**A.** 6.22 µM
